Measurements published in ChEMBL document CHEMBL4680341, “Substituted diaryl ether compounds as retinoic acid-related orphan Receptor-γt (RORγt) agonists” (Bioorg Med Chem Lett, 2021).

Legend:
in vitro [1] = conditions: human, liver microsomes
Description: Stability in human liver microsomes assessed as parent compound remaining at 3 uM after 10 mins by mass spectrometric method

in vitro [2] = conditions: mouse, liver microsomes
Description: Stability in mouse liver microsomes assessed as parent compound remaining at 3 uM after 10 mins by mass spectrometric method

in vitro [3] = conditions: rat, liver microsomes
Description: Stability in rat liver microsomes assessed as parent compound remaining at 3 uM after 10 mins by mass spectrometric method

remaining at 10 min, 3 µM (in vitro [1]): 79% | remaining at 10 min, 3 µM (in vitro [2]): 81% | remaining at 10 min, 3 µM (in vitro [3]): 78%
Structure (SMILES): CC(C)c1cc(F)cc(Oc2c(Cl)cc(NC(=O)Cc3cccnc3)cc2Cl)c1
